Biological target: PLK1 (Homo sapiens, UniProt P53350)
Assay: PLK1 Inhibition Assay 1 (radioactive-phosphate incorporation assay)
Type: biochemical
Conditions: Ki(app), [γ-33P]ATP 350 μM, peptide 450 μM, 1 nM PLK1 for values of <1 nM
Procedure: Compounds of the present invention are evaluated as inhibitors of human PLK using the following assays.
Compounds were screened for their ability to inhibit PLK1 using a radioactive-phosphate incorporation assay. Assays were carried out in a mixture of 25 mM HEPES (pH 7.5), 10 mM MgCl2, 0.1% BSA, and 2 mM DTT. Final substrate concentrations were 150 μM (350 μM for determining values of <1 nM) [γ-33P]ATP (115 mCi 33P ATP/mmol ATP, Amersham Pharmacia Biotech/Sigma Chemicals) and 300 μM (450 μM for determining values of <1 nM) peptide (KKKISDELMDATFADQEAK)[SEQ ID:1]. Assays were carried out at 25° C. in the presence of 4 nM (1 nM for determining values of <1 nM) PLK1. An assay stock buffer solution was prepared containing all of the reagents listed above, with the exception of ATP and the test compound of interest. 30 μL of the stock solution was placed in a 96 well plate followed by addition of 2 μL of DMSO stock containing serial dilutions of the test compound (typically starting from a final concentration of 10 μM with 2-fold serial dilutions) in duplicate (final DMSO concentration 5%). The plate was pre-incubated for 10 minutes at 25° C. and the reaction initiated by addition of 8 μL [γ-33P]ATP (final concentration 150 μM (350 μM for determining values of <1 nM))).
The reaction was stopped after 90 minutes (240 minutes for determining values of <1 nM) by the addition of 100 μL 0.14M phosphoric acid. A multiscreen phosphocellulose filter 96-well plate (Millipore, Cat no. MAPHN0B50) was pretreated with 100 μL 0.2M phosphoric acid prior to the addition of 125 μL of the stopped assay mixture. The plate was washed with 4×200 μL 0.2M phosphoric acid. […]
After removing mean background values for all of the data points, Ki(app) data were calculated from non-linear regression analysis of the initial rate data using the Prism software package (GraphPad Prism version 3.0cx for Macintosh, GraphPad Software, San Diego Calif., USA).

Chain of PLK1 (P53350 whole entry): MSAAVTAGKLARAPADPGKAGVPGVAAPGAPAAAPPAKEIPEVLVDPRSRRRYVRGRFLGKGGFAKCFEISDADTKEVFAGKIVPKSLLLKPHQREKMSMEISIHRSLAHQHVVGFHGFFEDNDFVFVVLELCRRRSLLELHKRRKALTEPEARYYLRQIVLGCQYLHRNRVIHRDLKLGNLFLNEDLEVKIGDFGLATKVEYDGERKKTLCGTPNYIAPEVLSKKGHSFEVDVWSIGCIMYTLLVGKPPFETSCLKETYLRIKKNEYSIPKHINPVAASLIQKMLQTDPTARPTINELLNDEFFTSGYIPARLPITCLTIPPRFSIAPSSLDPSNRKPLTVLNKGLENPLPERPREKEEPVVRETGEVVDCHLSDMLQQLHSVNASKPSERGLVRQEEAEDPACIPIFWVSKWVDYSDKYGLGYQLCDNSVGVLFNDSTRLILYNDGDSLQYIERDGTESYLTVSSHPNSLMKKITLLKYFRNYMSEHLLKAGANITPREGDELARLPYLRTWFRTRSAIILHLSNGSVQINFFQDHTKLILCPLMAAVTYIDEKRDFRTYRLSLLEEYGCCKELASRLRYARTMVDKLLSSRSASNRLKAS

| Ki | Compound |
| --- | --- |
| < 1 nM | CC[C@@H]1c2c(C(=O)O)ncn2-c2cnc(Nc3ccc(C(=O)NC)cc3OC)nc2N1C1CCCC1 [Compound I-2, (R)-3-(4-(methylcarbamoyl)-2-methoxyphenylamino)-5-cyclopentyl-6-ethyl-5,6-dihydroimidazo[1,5-f]pteridine-7-carboxylic acid] |
| < 1 nM | CC[C@@H]1c2cncn2-c2cnc(Nc3ccc(C(=O)NC)cc3OC)nc2N1C1CCCC1 [Compound I-4, (R)-4-(5-cyclopentyl-6-ethyl-5,6-dihydroimidazo[1,5-f]pteridin-3-ylamino)-3-methoxy-N-methylbenzamide] |
| < 1 nM | CC[C@@H]1c2cncn2-c2cnc(Nc3ccc(C(=O)NC4CC4)cc3OC)nc2N1C1CCCC1 [Compound I-6, (R)-4-(5-cyclopentyl-6-ethyl-5,6-dihydroimidazo[1,5-f]pteridin-3-ylamino)-N-cyclopropyl-3-methoxybenzamide] |

— patent US8557818B2, “Compounds useful as protein kinase inhibitors” (Vertex Phamaceuticals Incorporated, priority 2006, dated 2013)
